Test system: UM-C17 colon tumor cells
Test: UM-C17 colon tumor xenograft growth
Type: in vivo, NOD/SCID mice
Conditions: 10 mg/kg i.p. two times per week from day 19, tumors approximately 100 mm^3
Procedure: In certain embodiments, anti-Jagged 1 antibodies were analyzed for their ability to reduce the growth of UM-C17 colon tumor cells. Dissociated UM-C17 cells (10,000 per animal) were injected subcutaneously into the right flank region of 6-8 week old NOD/SCID mice. Day 19 after tumor cell injection, when tumors were approximately 100 mm^3, animals were injected intraperitoneal (i.p.) with either 10 mg/kg 64M14 anti-Jagged 1 antibodies, 10 mg/kg 64M14 anti-Jagged 1 antibody and 10 mg/kg Avastin (anti-VEGF), Avastin alone, or control antibody anti-DNP (dinitrophenol or anti-hapten) (n=10 per group) two times per week for the duration of the experiment. Both treatment with 64M14 antibodies and Avastin reduced tumor growth by close to 50% compared to controls (FIG. 4).

With Avastin: anti-VEGF antibody the “reduction of tumor growth compared to control antibodies” value was roughly 50%.

Source: US8802103B2, “Compositions and methods for diagnosing and treating cancer” (OncoMed Pharmaceuticals, Inc., priority 2007, dated 2014)
